In ChEMBL document CHEMBL1201862, “PubChem BioAssay data set” (2004):
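Grown in 96-well plates, cells were treated for 48 hours with each compound at five concentrations. Insufficient inhibition: endpoint recorded as highest concentration tested. GI50 is the concentration that inhibits growth by half.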 Active and inactive are the calls of the source. Cut-off read from the data, not from the text of the source: active = GI50 up to about 1.1 µM and inactive = higher.

Experiments:
Test in all cases: growth of human tumour cells (NCI), 48 h
[1] = tested on: A549
[2] = tested on: CCRF-CEM
[3] = tested on: DU-145
[4] = tested on: HCT-116
[5] = tested on: HOP-62
[6] = tested on: IGROV-1
[7] = tested on: KM12
[8] = tested on: MCF7
[9] = tested on: MDA-MB-231
[10] = tested on: NCI-H460
[11] = tested on: NCI-H522
[12] = tested on: OVCAR-3
[13] = tested on: OVCAR-5
[14] = tested on: RPMI-8226
[15] = tested on: SK-MEL-2
[16] = tested on: SNB-75
[17] = tested on: TK-10
[18] = tested on: Malme-3M
[19] = tested on: Hs-578T
[20] = tested on: BT-549

| Compound | GI50 [1] | GI50 [2] | GI50 [3] | GI50 [4] | GI50 [5] | GI50 [6] | GI50 [7] | GI50 [8] | GI50 [9] | GI50 [10] | GI50 [11] | GI50 [12] | GI50 [13] | GI50 [14] | GI50 [15] | GI50 [16] | GI50 [17] | GI50 [18] | GI50 [19] | GI50 [20] |
| --- | --- | --- | --- | --- | --- | --- | --- | --- | --- | --- | --- | --- | --- | --- | --- | --- | --- | --- | --- | --- |
| O=C(CSc1nc2ccc(I)cc2c(=O)n1Cc1ccccc1)NN1C(=O)CSC1c1ccccc1 (stereo not given) | 35.2 µM (inactive) | 29.2 µM (inactive) | 26.4 µM (inactive) | 24 µM (inactive) | 18.6 µM (inactive) | 22.6 µM (inactive) | 22.5 µM (inactive) | 19.2 µM (inactive) | 26.9 µM (inactive) | 18 µM (inactive) | 15.6 µM (inactive) | 16.1 µM (inactive) | 53.8 µM (inactive) | 31.2 µM (inactive) | 24.3 µM (inactive) | 34.2 µM (inactive) | 27.4 µM (inactive) |  |  |  |
| c1ccc2[nH]c(CNc3ccc(C4C[Se]N=N4)cc3)nc2c1 (stereo not given) | > 100 µM (inactive) | 25.7 µM (inactive) |  | 41.2 µM (inactive) | > 100 µM (inactive) | > 100 µM (inactive) | 26.4 µM (inactive) |  |  | 41.2 µM (inactive) | 29 µM (inactive) | 21.7 µM (inactive) | > 100 µM (inactive) | 25.6 µM (inactive) | 33 µM (inactive) | 43.2 µM (inactive) | > 100 µM (inactive) | 25.3 µM (inactive) |  |  |
| CCNCC(=O)Nc1ccc2c(c1)C(=O)c1ccc(NC(=O)CNCC)cc1C2=O | 2.41 µM (inactive) | 2.9 µM (inactive) | 2.69 µM (inactive) | 1.44 µM (inactive) | 5.75 µM (inactive) | 5.51 µM (inactive) | 11.7 µM (inactive) | 1.64 µM (inactive) | 3.3 µM (inactive) | 1.49 µM (inactive) | 1.87 µM (inactive) | 2.59 µM (inactive) | 3.01 µM (inactive) |  | 15.9 µM (inactive) | 1.41 µM (inactive) | 5.22 µM (inactive) | 15.5 µM (inactive) | 4.02 µM (inactive) |  |
| CC#CC1C(OC(=O)c2ccccc2)CCCC1(CI)N=[N+]=[N-] (stereo not given) | 58.6 µM (inactive) | 26.2 µM (inactive) |  | 32.8 µM (inactive) | 94 µM (inactive) | > 100 µM (inactive) | 89.7 µM (inactive) |  |  | 60.7 µM (inactive) | 22.4 µM (inactive) | > 100 µM (inactive) | > 100 µM (inactive) | 18.5 µM (inactive) | 75 µM (inactive) | > 100 µM (inactive) | > 100 µM (inactive) | > 100 µM (inactive) |  |  |
| CCCCOP1(=O)C=C(C)C(=C(Cl)Cl)C(C)=C1 (stereo not given) | 6.58 µM (inactive) | 4.2 µM (inactive) |  | 2.3 µM (inactive) | 13.9 µM (inactive) | 14.8 µM (inactive) | 2 µM (inactive) |  |  | 13 µM (inactive) | 5.45 µM (inactive) | 17.9 µM (inactive) | 45.1 µM (inactive) | 2.74 µM (inactive) | 1.98 µM (inactive) | 11.4 µM (inactive) | 11.2 µM (inactive) | 14.1 µM (inactive) |  |  |
| COc1ccc2c(c1)CC[C@@H]1C2CC[C@]2(C)C(=C=CP(=O)(O)O)CCC12 (stereo not given in full) | > 100 µM (inactive) |  | > 100 µM (inactive) | > 100 µM (inactive) | > 100 µM (inactive) | > 100 µM (inactive) | > 100 µM (inactive) | 79.6 µM (inactive) |  | > 100 µM (inactive) | > 100 µM (inactive) | > 100 µM (inactive) | > 100 µM (inactive) | < 0.01 µM (active) | > 100 µM (inactive) | > 100 µM (inactive) | > 100 µM (inactive) | > 100 µM (inactive) | > 100 µM (inactive) |  |
| O=C1OC2(CCCCC2)C(Oc2ccc(Cl)cc2)=C1F | 42.1 µM (inactive) | 29.7 µM (inactive) | 92.9 µM (inactive) | 35.7 µM (inactive) | > 100 µM (inactive) | 54.8 µM (inactive) | 40.1 µM (inactive) | 37.8 µM (inactive) | 77.3 µM (inactive) | 41.1 µM (inactive) | 12.7 µM (inactive) | 40.3 µM (inactive) | 74 µM (inactive) | 32.7 µM (inactive) | 23.8 µM (inactive) | 89.1 µM (inactive) | 85.1 µM (inactive) | 15.6 µM (inactive) | 50 µM (inactive) |  |
| O=C(O)CCc1ccc2c(c1)C(=O)CC2 | > 100 µM (inactive) | > 100 µM (inactive) | > 100 µM (inactive) | > 100 µM (inactive) | > 100 µM (inactive) | > 100 µM (inactive) | > 100 µM (inactive) | > 100 µM (inactive) | 80.5 µM (inactive) | > 100 µM (inactive) | > 100 µM (inactive) | > 100 µM (inactive) | > 100 µM (inactive) | > 100 µM (inactive) | > 100 µM (inactive) |  | > 100 µM (inactive) | > 100 µM (inactive) |  | > 100 µM (inactive) |
| COC(=O)CCc1ccc2c(c1)CC1(Cc3ccccc3C1)C2 | 98.4 µM (inactive) | 34.6 µM (inactive) |  | 95.1 µM (inactive) | > 100 µM (inactive) | > 100 µM (inactive) | > 100 µM (inactive) | > 100 µM (inactive) | > 100 µM (inactive) |  | 74 µM (inactive) | > 100 µM (inactive) | > 100 µM (inactive) | > 100 µM (inactive) | 14.3 µM (inactive) | < 0.01 µM (active) | > 100 µM (inactive) | > 100 µM (inactive) | > 100 µM (inactive) |  |
| Cc1ncc(COP(=O)(O)O)c(/C=C2\SC(=S)NC2=O)c1O | > 100 µM (inactive) |  | > 100 µM (inactive) | > 100 µM (inactive) | > 100 µM (inactive) | > 100 µM (inactive) | > 100 µM (inactive) | > 100 µM (inactive) | > 100 µM (inactive) | > 100 µM (inactive) | > 100 µM (inactive) | > 100 µM (inactive) | > 100 µM (inactive) | > 100 µM (inactive) | > 100 µM (inactive) | > 100 µM (inactive) | > 100 µM (inactive) | > 100 µM (inactive) |  | > 100 µM (inactive) |
| OC12CC/C(=N/OCc3ccccc3)CC1c1ccccc12 (stereo not given) | > 100 µM (inactive) | > 100 µM (inactive) |  | > 100 µM (inactive) | > 100 µM (inactive) | > 100 µM (inactive) | > 100 µM (inactive) |  |  | > 100 µM (inactive) | > 100 µM (inactive) | > 100 µM (inactive) | > 100 µM (inactive) | > 100 µM (inactive) | > 100 µM (inactive) | 39.7 µM (inactive) | > 100 µM (inactive) | > 100 µM (inactive) |  |  |
| CCOC(=O)NC(C(C(=O)OCC)C(=O)OCC)(C(F)(F)F)C(F)(F)F | > 100 µM (inactive) | > 100 µM (inactive) | > 100 µM (inactive) | > 100 µM (inactive) | > 100 µM (inactive) | > 100 µM (inactive) | > 100 µM (inactive) | > 100 µM (inactive) | > 100 µM (inactive) | > 100 µM (inactive) | > 100 µM (inactive) | > 100 µM (inactive) | > 100 µM (inactive) | > 100 µM (inactive) | > 100 µM (inactive) | > 100 µM (inactive) | > 100 µM (inactive) | > 100 µM (inactive) | > 100 µM (inactive) |  |
| O=C1C=C(Nc2ccccc2C(=O)CC(=O)C(=O)Nc2cccc([N+](=O)[O-])c2)c2ccccc2C1=O | 83.9 µM (inactive) | 3.3 µM (inactive) |  | 20.7 µM (inactive) | > 100 µM (inactive) | 80.4 µM (inactive) | 36.7 µM (inactive) |  |  | 93.3 µM (inactive) | 21.8 µM (inactive) | 14.2 µM (inactive) | > 100 µM (inactive) | 5.58 µM (inactive) | 56 µM (inactive) | 64.7 µM (inactive) | > 100 µM (inactive) | 20.4 µM (inactive) |  |  |
| O=c1[nH]nc2c3n[nH]c(=O)n3c3ccccc3n12 | > 100 µM (inactive) | > 100 µM (inactive) |  | > 100 µM (inactive) | > 100 µM (inactive) | > 100 µM (inactive) | > 100 µM (inactive) |  |  | > 100 µM (inactive) | 66.1 µM (inactive) | > 100 µM (inactive) | > 100 µM (inactive) | > 100 µM (inactive) | > 100 µM (inactive) | 57.5 µM (inactive) | > 100 µM (inactive) | > 100 µM (inactive) |  |  |
| S=C(NN=C1NCCCCN1)Nc1ccccc1 | 34.8 µM (inactive) | 19.8 µM (inactive) | > 100 µM (inactive) | 24.5 µM (inactive) | 68.9 µM (inactive) | 43.4 µM (inactive) | 37.2 µM (inactive) | 31.2 µM (inactive) | > 100 µM (inactive) | 37.2 µM (inactive) | 21.2 µM (inactive) | 40.4 µM (inactive) | > 100 µM (inactive) | 9.93 µM (inactive) |  | 80.9 µM (inactive) |  | > 100 µM (inactive) |  | 64.9 µM (inactive) |
| CSc1nc(NC2OC(COC(C)=O)C(OC(C)=O)C(OC(C)=O)C2OC(C)=O)c2c(n1)OCC2=O (stereo not given) | > 100 µM (inactive) | > 100 µM (inactive) |  | > 100 µM (inactive) | > 100 µM (inactive) | > 100 µM (inactive) | > 100 µM (inactive) |  |  | > 100 µM (inactive) | > 100 µM (inactive) | > 100 µM (inactive) | > 100 µM (inactive) | > 100 µM (inactive) | > 100 µM (inactive) | > 100 µM (inactive) | > 100 µM (inactive) | > 100 µM (inactive) |  |  |
